# In patent publication US11401264B2, “Heterocyclic compound” (Orizuru Therapeutics, Inc., priority 2018, dated 2022):
# Columns and labels:
# [1] = system: cardiomyocytes (embryoid bodies) from double knock-in human iPS cell lines (mCherry at TNNI3 locus); assay: Experimental Example 2: mCherry expression in TNNI1+ cells by flow cytometry; type: cell-based; conditions: 3 μM, 8th-16th day, DMSO control 7.8
# Procedure: For detection of cardiomyocyte maturation, double knock-in human iPS cell lines, in which reporter protein sequences, EmGFP (Sequence Number 1) and mCherry (Sequence Number 2) were inserted into gene loci for TNNI1 and TNNI3, respectively, were prepared (the human iPS cells were prepared from episomal vector (loaded gene; OCT3/4, KLF4, SOX2, L-MYC, LIN28, mouse p53DD) using PBMC (LP_167, Sample ID: 20130318) purchased from CTL (reference literature; Okita K, et al. Stem Cells. 2012 Nov. 29. doi: 10.1002/stem.1293)).
# The maintenance culture of the above-mentioned reporter iPS cell lines was carried out by a conventional method (Okita K, et al. Stem Cells. 2012 Nov. 29. doi: 10.1002/stem.1293).
# For differentiation induction into cardiomyocytes, the reporter iPS cell lines were treated with 0.5×TrypLE select (Life Technologies, diluted in 1/2 with 0.5 mM EDTA/PBS) for 4 to 5 minutes, and the cells were exfoliated using a cell scraper (IWAKI), and then dissociated into the single cell by pipetting. The medium was removed by centrifugation (1,000 rpm, 5 min), and the obtained cells were suspended in a medium prepared by adding 1% L-glutamine, transferrin 150 μg/mL, ascorbic acid 50 μg/mL (Sigma), monothioglycerol […], 10 μM Rock inhibitor (Y-27632), 2 ng/mL BMP4 (R&D) and 0.5% Matrigel (Growth Factor Reduced) to StemPro-34 SFM (ThermoFisher) in a 6 well-plate by 2×10^6 cells/1.5 mL/well, and then subjected to static culture at 37° C., under 5% oxygen condition to form embryoid bodies (0 day).
# Next day (1st day), a medium prepared by adding 1% L-glutamine, transferrin 150 μg/mL, ascorbic acid 50 μg/mL (Sigma), monothioglycerol 4><10^−4 M, 1.8 μL (concentration 12 ng/mL) of 10 μg/mL activin A, […] (concentration 10 ng/mL) of 10 μg/mL bFGF and 2.7 μL (concentration 18 ng/mL) of 10 μg/mL BMP4 to 1.5 mL of StemPro-34 SFM (ThermoFisher) was added to each well of the 6 well plate containing the embryoid bodies to adjust the volume combined with the 0 day's medium to final 3 mL (activin A: 6 ng/ml, bFGF: 5 ng/ml, BMP4: 10 ng/ml), and the embryoid bodies were cultured at 37° C. for additional 2 days, under 5% oxygen condition.
# Then (3rd day), the 6 well plate containing the embryoid bodies was inclined, and then left to stand for 1 to 2 minutes until the embryoid bodies were precipitated at the edges of the wells, and the supernatant was aspirated so as not to suck the embryoid bodies. Then, IMDM (ThermoFisher) medium was added to each well, and, as above, the plate was inclined, and then left to stand for 1 to 2 minutes, and the supernatant was aspirated so as not to suck the embryoid bodies. A medium prepared by adding 1% L-glutamine, transferrin 150 μg/mL, ascorbic acid 50 μg/mL (Sigma), monothioglycerol 4×10^−4 M, 10 ng/mL VEGF, 1 μM IWP-3, 0.6 μM dorsomorphin and 5.4 μM SB431542 to 3 mL of StemPro-34 SFM (ThermoFisher) was added to each well of the 6 well plate, and then the embryoid bodies were cultured at 37° C. for 3 days, under 5% oxygen condition.
# Then (6th day), the 6 well plate containing the embryoid bodies was inclined, and then left to stand for 1 to 2 minutes until the embryoid bodies were precipitated at the edges of the wells, and the supernatant was aspirated so as not to suck the embryoid bodies. […]
# [2] = system: cardiomyocytes from double knock-in human iPS cell lines (mCherry at TNNI3 locus); assay: Experimental Example 1: mCherry (TNNI3 reporter) immunostaining measured by high contents screening; type: cell-based; conditions: read on 8th day, Alexa 647 anti-mCherry, control well 797
# Outline: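 Double knock-in iPS lines (EmGFP at TNNI1, mCherry at TNNI3) differentiated as embryoid bodies in stirred bioreactor at 37 °C, 5% O2: BMP4/activin A/bFGF, then VEGF, IWP-3, dorsomorphin, SB431542, then VEGF alone. On day 14, dissociated cells seeded at 1.0×10^4 cells/well on iMatrix-511 in AK02-based cardiomyocyte medium.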
structure (smiles),measurement,setting,value
"O=C1c2ccc(N3CCCCC3)cc2CN1c1ccc2[nH]c(-c3cccnc3)nc2c1 [Example 46, 5-(piperidin-1-yl)-2-(2-(pyridin-3-yl)-1H-benzimidazol-5-yl)isoindolin-1-one]",mCherry+ (%),[1],47.2%
same,average fluorescent intensity (at 1 μM),[2]; test compound 1 μM added on 3rd and 6th culture days,1142
same,average fluorescent intensity (at 30 μM),[2]; test compound 30 μM added on 3rd and 6th culture days,1616
